# Patent US20220409620A1, “REDUCING IMMUNOGENICITY TO PEGLOTICASE” (Horizon Pharma Rheumatology LLC, priority 2016, published 2022)
# Tested on: adult patients with uncontrolled gout
# Assay: Serum uric acid (sUA) levels and sUA responder rate, open-label study of pegloticase with MTX (MIRROR OL)
# Format: in vivo, human
# Protocol: The primary objective is to estimate the response rate during Month 6 (Weeks 20, 22, and 24), as measured by the sustained normalization of serum uric acid (SUA) to <6 mg/dL for at least 80% of the time during Month 6 in subjects receiving KXX with MTX.
# The primary efficacy outcome endpoint is the sustained normalization of SUA to <6 mg/dL for at least 80% of the time during month 6 (weeks 20, 22, and 24) in subjects receiving KXX with MTX. […] Participants who achieve this endpoint were classified as “responders.” Serum uric acid (SUA) responders may also be defined as participants achieving and maintaining SUA <6 mg/dL for at least 80% of the time during Month 6 (Weeks 20, 22, and 24).
# Blood samples may be collected prior to each pegloticase infusion for measurement of SUA levels using the Beckman Coulter AU System Uric Acid procedure. Participants were declared “non-responders” if there were SUA measures >6 mg/dL at 2 consecutive study visits beginning with the week 2 visit. […] This assumption and subsequent discontinuation of pegloticase was consistent with the protocol of large phase III randomized controlled trials and the product label. A formal stopping rule was 2 occasions of SUA levels of greater than 6 mg/dL.
# Clinical Chemistry—Blood samples were collected prior to each pegloticase infusion for measurement of SUA levels (primary efficacy parameter) using the Beckman Coulter AU System Uric Acid procedure. In this procedure uric acid is converted to hydrogen peroxide. Hydrogen peroxide reacts with reagent to produce a chromophore which is read bichromatically at 660/800 nm. The amount of dye formed is proportional to the uric acid concentration in the sample.
# Serum samples for measurement of SUA levels were collected at the Screening Visit, the Week −4 Visit (prior to the first dose of MTX), and the Week −2 Visit during the MTX Run-in Period; within 48 hours prior to each pegloticase infusion and after the end of each pegloticase infusion prior to discharge from the site during the Pegloticase+IMM Period; at the non-infusion Week 52/End of Study/Early Termination Visits and at the Post Treatment 3 and 6 Month Follow-up Visits. Additional serum samples for SUA levels were collected at optional non-infusion (Frequent Sampling) Visits at Weeks 1 and 7. […] Subjects with SUA level >6 mg/dL at 2 consecutive visits beginning at Week 2 visit discontinued treatment, completed the End of Pegloticase Infusion Visit procedures within 2 weeks and continued the subject visits according to the protocol (without treatment).
# Efficacy analyses were performed using the modified intention-to-treat (mITT) population, defined as all enrolled subjects who received ≥1 dose of pegloticase. The proportion of Month 6 responders was summarized, along with a 95% confidence interval for the proportion. The proportion of Month 3 and overall (Months 3 and 6 combined) responders was analyzed similarly.
# A subject was declared a non-responder if the subject had SUA level >6 mg/dL at 2 consecutive study visits beginning with the Week 2 Visit. In addition, a subject who withdraws from study treatment for any reason after the first dose of pegloticase in the KXX+MTX Period and prior to Month 6 (for the primary endpoint) or Month 3 (for the secondary endpoint) was considered a non-responder if SUA values were not collected at the planned time points.
# Patients were administered oral MTX (15 mg/week) and folate (1 mg/day) 4 weeks prior to the first pegloticase infusion (Day 1) and throughout the pegloticase treatment period. Blood was drawn prior to each infusion to measure sUA level, monitor clinical parameters, and examine for ADA development. All patients followed typical IR prophylaxis protocols (fexofenadine one day before and the morning of each infusion and acetaminophen and IV corticosteroid the morning of each infusion).
# [1] = Month 6 sUA Responders, Week 48-Post-Infusion, n=3
# [2] = Month 6 sUA Responders, Week 48-Pre-Infusion, n=2
# [3] = Month 6 sUA Responders, Week 50-Post-Infusion, n=3
# [4] = Month 6 sUA Responders, Week 50-Pre-Infusion, n=2
# [5] = Month 6 sUA Responders, Week 52/ET, n=2
# [6] = Week 2 - Post-Infusion, mITT Population
# [7] = Week 2 - Pre-Infusion, mITT Population
# [8] = Week 4 - Post-Infusion, mITT Population
# [9] = Week 4 - Pre-Infusion, mITT Population
# [10] = Week 6 - Post-Infusion, mITT Population
# [11] = Week 6 - Pre-Infusion, mITT Population
substance,measurement,setting,value
pegloticase,"Serum Uric Acid, Change from Baseline, Mean (SD)",[1],−10.33 (4.922) mg/dL
same,"Serum Uric Acid, Change from Baseline, Median",[1],-9.80 mg/dL
same,"Serum Uric Acid, Observed, Mean (SD)",[1],1.60 (2.252) mg/dL
same,"Serum Uric Acid, Observed, Median",[1],0.30 mg/dL
same,"sUA <6 mg/dL, n (%)",[1],3 (100%)
same,"Serum Uric Acid, Change from Baseline, Mean (SD)",[2],−12.65 (4.031) mg/dL
same,"Serum Uric Acid, Change from Baseline, Median",[2],-12.65 mg/dL
same,"Serum Uric Acid, Observed, Mean (SD)",[2],0.30 (0.000) mg/dL
same,"Serum Uric Acid, Observed, Median",[2],0.30 mg/dL
same,"sUA <6 mg/dL, n (%)",[2],2 (100%)
same,"Serum Uric Acid, Change from Baseline, Mean (SD)",[3],−10.57 (4.598) mg/dL
same,"Serum Uric Acid, Change from Baseline, Median",[3],-9.80 mg/dL
same,"Serum Uric Acid, Observed, Mean (SD)",[3],1.37 (1.848) mg/dL
same,"Serum Uric Acid, Observed, Median",[3],0.30 mg/dL
same,"sUA <6 mg/dL, n (%)",[3],3 (100%)
same,"Serum Uric Acid, Change from Baseline, Mean (SD)",[4],−12.65 (4.031) mg/dL
same,"Serum Uric Acid, Change from Baseline, Median",[4],-12.65 mg/dL
same,"Serum Uric Acid, Observed, Mean (SD)",[4],0.30 (0.000) mg/dL
same,"Serum Uric Acid, Observed, Median",[4],0.30 mg/dL
same,"sUA <6 mg/dL, n (%)",[4],2 (100%)
same,"Serum Uric Acid, Change from Baseline, Mean (SD)",[5],−12.65 (4.031) mg/dL
same,"Serum Uric Acid, Change from Baseline, Median",[5],-12.65 mg/dL
same,"Serum Uric Acid, Observed, Mean (SD)",[5],0.30 (0.000) mg/dL
same,"Serum Uric Acid, Observed, Median",[5],0.30 mg/dL
same,"sUA <6 mg/dL, n (%)",[5],2 (100%)
same,"Serum Uric Acid, Change from Baseline, Mean (SD)","Week 1, mITT Population",−7.28 (1.556) mg/dL
same,"Serum Uric Acid, Change from Baseline, Median","Week 1, mITT Population",-7.75 mg/dL
same,"Serum Uric Acid, Observed, Mean (SD)","Week 1, mITT Population",0.30 (0.000) mg/dL
same,"Serum Uric Acid, Observed, Median","Week 1, mITT Population",0.30 mg/dL
same,"sUA <6 mg/dL, n (%)","Week 1, mITT Population",6 (100%)
same,"Serum Uric Acid, Change from Baseline, Mean (SD)",[6],−8.86 (2.486) mg/dL
same,"Serum Uric Acid, Change from Baseline, Median",[6],-8.70 mg/dL
same,"Serum Uric Acid, Observed, Mean (SD)",[6],0.30 (0.000) mg/dL
same,"Serum Uric Acid, Observed, Median",[6],0.30 mg/dL
same,"sUA <6 mg/dL, n (%)",[6],14 (100%)
same,"Serum Uric Acid, Change from Baseline, Mean (SD)",[7],−7.90 (2.878) mg/dL
same,"Serum Uric Acid, Change from Baseline, Median",[7],-8.70 mg/dL
same,"Serum Uric Acid, Observed, Mean (SD)",[7],1.26 (2.163) mg/dL
same,"Serum Uric Acid, Observed, Median",[7],0.30 mg/dL
same,"sUA <6 mg/dL, n (%)",[7],13 (92.9%)
same,"Serum Uric Acid, Change from Baseline, Mean (SD)",[8],−8.92 (2.577) mg/dL
same,"Serum Uric Acid, Change from Baseline, Median",[8],-8.80 mg/dL
same,"Serum Uric Acid, Observed, Mean (SD)",[8],0.30 (0.000) mg/dL
same,"Serum Uric Acid, Observed, Median",[8],0.30 mg/dL
same,"sUA <6 mg/dL, n (%)",[8],13 (100%)
same,"Serum Uric Acid, Change from Baseline, Mean (SD)",[9],−7.54 (3.768) mg/dL
same,"Serum Uric Acid, Change from Baseline, Median",[9],-8.00 mg/dL
same,"Serum Uric Acid, Observed, Mean (SD)",[9],1.61 (2.637) mg/dL
same,"Serum Uric Acid, Observed, Median",[9],0.30 mg/dL
same,"sUA <6 mg/dL, n (%)",[9],12 (85.7%)
same,"Serum Uric Acid, Change from Baseline, Mean (SD)",[10],−8.98 (2.679) mg/dL
same,"Serum Uric Acid, Change from Baseline, Median",[10],-8.95 mg/dL
same,"Serum Uric Acid, Observed, Mean (SD)",[10],0.30 (0.000) mg/dL
same,"Serum Uric Acid, Observed, Median",[10],0.30 mg/dL
same,"sUA <6 mg/dL, n (%)",[10],12 (100%)
same,"Serum Uric Acid, Change from Baseline, Mean (SD)",[11],−8.31 (3.538) mg/dL
same,"Serum Uric Acid, Change from Baseline, Median",[11],-8.80 mg/dL
same,"Serum Uric Acid, Observed, Mean (SD)",[11],0.91 (2.191) mg/dL
same,"Serum Uric Acid, Observed, Median",[11],0.30 mg/dL
same,"sUA <6 mg/dL, n (%)",[11],12 (92.3%)
same,"Serum Uric Acid, Change from Baseline, Mean (SD)","Week 7, mITT Population",−8.90 (4.755) mg/dL
same,"Serum Uric Acid, Change from Baseline, Median","Week 7, mITT Population",-7.85 mg/dL
